What was measured:
[1] = tested on: patients with diarrhea-predominant IBS; conditions: cited from earlier work
[2] = by gender; cited from earlier work
[3] = tested on: patients with diarrhea-predominant IBS; assay: Scintigraphic measurement of colonic transit (colonic geometric center at 24 hours) at baseline and after 6 weeks of alosetron; type: in vivo, human; conditions: for change in colonic geometric center (ΔGC) at 24 hr: 6 weeks vs baseline, negative = slower transit
Excerpt: Colonic transit can be monitored by known methods (Camilleri M. and Zinsmeister A. R., Gastroenterology 103:36-42 (1992); and Camilleri M. et al., Dig. Dis. Sci. 36:609-615 (1991)). In general, labeled (e.g., ^111In) pellets can be delivered to the colon by means of a methacrylate-coated, delayed-release capsule. Simultaneously, labeled (e.g., ^99mTc) pellets can be ingested in a scrambled egg, toast, and milk meal to facilitate measurement of gastric and small bowel transit. A large field gamma camera (e.g., GE 500, General Electric, Milwaukee, Wis.) with a medium energy parallel hole collimator can be used to obtain images. Typically, images are obtained with subjects in the erect position. A variable region of interest (ROI) program can be used to measure colonic transit, with abdominal images obtained at periodic intervals (e.g.,4, 6, 8, 24, 32, and 48 hours pre- or post-treatment. The amount of label can be determined from the abdominal images in four colonic regions: the ascending, transverse, descending, and combined sigmoid and rectum regions. These counts may be corrected for isotope decay and tissue attenuation, as described in Camilleri et al. (1991) and Camilleri and Zinsmeister (1992), referenced above. The colonic geometric center is the weighted average of counts in the four different colonic regions [ascending (AC), transverse (TC), descending (DC), rectosigmoid (RS) and stool]:
(% AC×1+% TC×2+% DC×3+% RS×4+% stool×5)/100=geometric center
A high geometric center implies faster colonic transit, while a reduction of geometric center with treatment implies a retardation of colonic transit.
Thirty patients with diarrhea-predominant IBS associated were studied. Gastrointestinal and colonic transit were performed during a baseline period and during the last week of a 6-week therapeutic trial with alosetron 1 mg twice daily (b.i.d.). Demographic data of the original 30 participants are as follows: mean age 43.2±3y (females 46±4y, males 40±4y); mean duration of IBS 11.2±2.0y (females 9.2±2.3y and males 13.1±3.2y). Twenty-three of the 30 patients agreed to participate in an evaluation of the influence of the genotype of the promoter region of the 5-HTTP gene. The demographics, gender, and duration of illness in the three groups of patients according to 5-HTTP genotype are shown in the table below.
An established scintigraphic method was used as referenced above. Briefly, ^111In pellets were delivered to the colon by means of a methacrylate-coated, delayed-release capsule. Simultaneously, ^99mTc pellets were ingested in a scrambled egg, toast, and milk meal (218 kcal) to facilitate measurement of gastric and small bowel transit. Subjects ingested standardized meals for lunch and dinner. A variable region of interest (ROI) program was used to measure colonic transit. Abdominal images at 4, 6, 8, 24, 32, and 48 hours were obtained using a large field of view gamma camera (GE 500, General Electric, Milwaukee, Wis.) with a medium energy parallel hole collimator. All images were obtained with the subjects in the erect position. Radioscintigraphic markers were placed for reference on the anterior ends of the iliac crests. Anterior and posterior images were obtained with the camera positioned over the abdomen. This facilitated subsequent correction of radioisotopic counts for tissue attenuation.
The counts in four colonic regions were determined: the ascending, transverse, descending, and combined sigmoid and rectum regions. These counts were corrected for isotope decay and tissue attenuation, as referenced above. The primary endpoint of investigation was the colonic geometric center at 24 hours. The colonic geometric center is the weighted average of counts in the four different colonic regions [ascending (AC), transverse (TC), descending (DC), rectosigmoid (RS) and stool]:
Thus, a high geometric center implies faster colonic transit, while a reduction of geometric center with treatment implies a retardation of colonic transit. […]

[4] = females, alosetron 1 mg b.i.d., 6 weeks
[5] = males, alosetron 1 mg b.i.d., 6 weeks

## Cc1[nH]cnc1CN1CCc2c(c3ccccc3n2C)C1=O [alosetron]
[1]; clinical trials, women with diarrhea-predominant IBS
  adequate relief of IBS pain and discomfort and normalization of bowel function: beneficial effect
[1]; greater effect in females than males
  effect on colonic transit in patients with diarrhea-predominant IBS: significantly prolonged
[2]
  systemic exposure, females compared to males: slightly greater systemic exposure
[3]; [4]
  number of females in whom there was no effect on colonic transit: 2
  number of patients with retardation of colonic transit greater than the clinically significant threshold of 1.14 colonic regions: Nine
[3]; females, alosetron 1 mg b.i.d., p=0.005 vs males
  change in colonic geometric center (ΔGC) at 24 hr: −1.45±0.25 geometric center units
[3]; genotype groups after treatment with alosetron
  colonic transit response by 5-HTTP promoter genotype (change of 1.14 units in ΔGC24h, FIG. 2): a greater response was observed in those with the long polymorphism
[3]; heterozygous 5-HTTP promoter genotype group
  proportion of high responders (slowing of colonic transit by more than 1.14 regions): 2 of 11
[3]; long variant homozygous 5-HTTP promoter genotype group, Fisher's exact test p=0.024 vs heterozygous
  proportion of high responders (slowing of colonic transit by more than 1.14 regions): 6 of 8
[3]; long/long homozygous vs long/short heterozygous patients, p=0.039
  colonic transit response by 5-HTTP promoter genotype: significantly higher response in long variant/long variant homozygous
[3]; [5]
  males with retardation of colonic transit at 24 hours equal to or greater than the mean change in females (1.45 geometric center units): 2 of 15
  number of patients with retardation of colonic transit greater than the clinically significant threshold of 1.14 colonic regions: 3
[3]; males, alosetron 1 mg b.i.d.
  change in colonic geometric center (ΔGC) at 24 hr: −0.32±0.27 geometric center units
[3]; patients with IBS, alosetron 1 mg b.i.d., last week of 6-week trial, lower = slower colonic transit
  colonic geometric centers at 24 hours following treatment compared to baseline: significantly lower

Reference: patent US20030143548A1, “Predicting patient responsiveness to serotonergic therapy” (priority 2002, published 2003)
